# Results published in ChEMBL document CHEMBL1147500, “A prodrug approach to COX-2 inhibitors with methylsulfone” (Bioorg Med Chem Lett, 2004).
# Key:
# Rattus norvegicus [1] = assay: Inhibition of adjuvant-induced arthritis (AA) in SD rats upon peroral administration (BID) at 0.1 mg/kg/day; type: functional; settings: route oral
# Rattus norvegicus [2] = assay: Inhibition of adjuvant-induced arthritis (AA) in SD rats upon peroral administration (BID) at 0.3 mg/kg/day; type: functional; settings: route oral
# Rattus norvegicus [3] = assay: Effective dose against adjuvant-induced arthritis (AA) in male lewis rats upon peroral administration (bid); type: functional; settings: po
# [4] = Area under curve (0-24 hr) at a dose of 10 mg/kg in male SD rats; type: ADME, organism-based; set-up: time < 24 hr, dose 10 mg/kg; settings: rat, in vivo
# [5] = Cmax value at a dose of 10 mg/kg in male SD rats; type: ADME, organism-based; set-up: dose 10 mg/kg; settings: rat, in vivo
# [6] = Tmax value at a dose of 10 mg/kg in male SD rats; type: ADME, organism-based; set-up: dose 10 mg/kg; settings: rat, in vivo
# [7] = Tmax value at a dose of 50 mg/kg in male SD rats; type: ADME, organism-based; set-up: dose 50 mg/kg; settings: rat, in vivo
# [8] = Cmax value at a dose of 100 mg/kg in male SD rats; type: ADME, organism-based; set-up: dose 100 mg/kg; settings: rat, in vivo
# [9] = Cmax value at a dose of 50 mg/kg in male SD rats; type: ADME, organism-based; set-up: dose 50 mg/kg; settings: rat, in vivo
# [10] = Area under curve (0-24 hr) at a dose of 50 mg/kg in male SD rats; type: ADME, organism-based; set-up: time < 24 hr, dose 50 mg/kg; settings: rat, in vivo
# [11] = target: T1, Prostaglandin G/H synthase 2 (Mus musculus, UniProt Q05769); assay: Inhibitory concentration against prostaglandin G/H synthase 2 in mouse peritoneal macrophages
# T1 sequence (Q05769 whole entry): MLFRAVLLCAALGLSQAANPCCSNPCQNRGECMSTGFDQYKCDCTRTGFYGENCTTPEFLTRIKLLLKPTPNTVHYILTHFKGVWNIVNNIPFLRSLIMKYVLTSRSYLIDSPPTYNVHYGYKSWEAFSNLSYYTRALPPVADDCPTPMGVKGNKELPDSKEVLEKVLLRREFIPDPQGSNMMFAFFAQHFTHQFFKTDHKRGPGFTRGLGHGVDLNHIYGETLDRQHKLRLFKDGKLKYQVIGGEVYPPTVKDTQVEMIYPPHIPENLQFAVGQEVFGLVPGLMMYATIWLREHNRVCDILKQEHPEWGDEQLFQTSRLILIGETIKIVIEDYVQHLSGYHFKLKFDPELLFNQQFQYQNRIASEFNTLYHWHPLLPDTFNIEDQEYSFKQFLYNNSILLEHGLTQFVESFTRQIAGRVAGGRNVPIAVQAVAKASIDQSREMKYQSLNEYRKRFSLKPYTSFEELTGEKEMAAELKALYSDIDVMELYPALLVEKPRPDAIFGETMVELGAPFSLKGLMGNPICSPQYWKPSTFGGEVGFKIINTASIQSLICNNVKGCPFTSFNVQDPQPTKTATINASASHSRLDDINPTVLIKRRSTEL
# [12] = Cmax upon oral administration in male Beagle dog at 10 mg/kg; type: ADME, organism-based, Canis lupus familiaris; set-up: dose 10 mg/kg, route oral; settings: in vivo
# [13] = target: T2, Prostaglandin G/H synthase 1 (Mus musculus, UniProt P22437); assay: Inhibitory concentration against prostaglandin G/H synthase 1 in mouse peritoneal macrophages
# T2 sequence (P22437 whole entry): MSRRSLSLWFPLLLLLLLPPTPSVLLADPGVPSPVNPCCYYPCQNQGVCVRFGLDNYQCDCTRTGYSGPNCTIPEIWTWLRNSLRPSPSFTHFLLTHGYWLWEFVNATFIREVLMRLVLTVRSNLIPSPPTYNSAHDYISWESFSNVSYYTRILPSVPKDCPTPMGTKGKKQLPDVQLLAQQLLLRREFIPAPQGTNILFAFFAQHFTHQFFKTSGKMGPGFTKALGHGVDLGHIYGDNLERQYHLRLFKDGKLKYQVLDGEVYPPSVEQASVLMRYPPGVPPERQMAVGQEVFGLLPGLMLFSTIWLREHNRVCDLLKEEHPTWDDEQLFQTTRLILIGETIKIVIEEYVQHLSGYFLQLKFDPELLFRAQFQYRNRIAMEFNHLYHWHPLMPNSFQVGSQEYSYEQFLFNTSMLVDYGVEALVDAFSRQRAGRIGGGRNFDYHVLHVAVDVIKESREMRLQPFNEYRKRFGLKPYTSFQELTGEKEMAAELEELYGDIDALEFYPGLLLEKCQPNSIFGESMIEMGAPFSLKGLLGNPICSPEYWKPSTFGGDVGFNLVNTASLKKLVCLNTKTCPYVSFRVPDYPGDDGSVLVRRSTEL
# [14] = Area under curve (0-24 hr) at a dose of 100 mg/kg in male SD rats; type: ADME, organism-based; set-up: time < 24 hr, dose 100 mg/kg; settings: rat, in vivo
# [15] = Tmax value at a dose of 100 mg/kg in male SD rats; type: ADME, organism-based; set-up: dose 100 mg/kg; settings: rat, in vivo
# Rattus norvegicus [16] = assay: Effective dose against adjuvant-induced arthritis (AA) in SD rats upon peroral administration (QD); type: functional; settings: po
structure (smiles),measurement,setting,value
C[S+]([O-])c1ccc(C2=C(c3cc(F)cc(F)c3)C(=O)C(C)(C)O2)cc1 (stereo not drawn),inhibition in vivo at 0.1 mg/kg/day,Rattus norvegicus [1],40%
same,inhibition in vivo at 0.3 mg/kg/day,Rattus norvegicus [2],76%
same,ED50,Rattus norvegicus [3],~0.2 mg/kg/day
CC1(C)OC(c2ccc(S(C)(=O)=O)cc2)=C(c2cccc(Cl)c2)C1=O,AUC(0-t) at 24 h,[4],12700 ng·h/mL
same,Cmax,[5],1390 ng/mL
same,Tmax,[6],1.5 h
C[S+]([O-])c1ccc(C2=C(c3cccc(Cl)c3)C(=O)C(C)(C)O2)cc1 (stereo not drawn),AUC(0-t) at 24 h,[4],3610 ng·h/mL
same,Cmax,[5],460 ng/mL
same,Tmax,[6],0.5 h
CC1(C)OC(c2ccc(S(C)(=O)=O)cc2)=C(c2cc(F)cc(F)c2)C1=O,Tmax,[7],4.3 h
same,Cmax,[8],24900 ng/mL
same,Cmax,[9],11700 ng/mL
same,AUC(0-t) at 24 h,[4],23100 ng·h/mL
same,AUC(0-t) at 24 h,[10],359000 ng·h/mL
same,Cmax,[5],2580 ng/mL
same,IC50,[11],0.0529 µM
same,Tmax,[6],2 h
same,Cmax,[12],130 ng/mL
same,IC50,[13],13.2 µM
same,AUC(0-t) at 24 h,[14],487000 ng·h/mL
same,Tmax,[15],5 h
same,ED50,Rattus norvegicus [16],0.03 mg/kg/day
COc1ccc2c(c1)c(CC(=O)O)c(C)n2C(=O)c1ccc(Cl)cc1 [INDOMETHACIN],inhibition in vivo at 0.3 mg/kg/day,Rattus norvegicus [2],60%
